# Values of other authors as cited in patent US10098898B1, “Release stable mesalamine dosage forms” (Handa Pharmaceuticals, LLC, priority 2017, dated 2018).
# Conditions: 1% aqueous solution
structure (smiles),measurement,value
O=P([O-])([O-])O.[Na+].[Na+] [disodium hydrogen phosphate],pH,about 9.1
